Consider eleven molecules from patent US20050112573A1, “Method of detecting toxic substance” (priority 2001, published 2005).

Read-outs that look alike come from different tables or passages of the source.

What all share (assay type): cell-based, Saccharomyces cerevisiae W303
For assay [1], the system named is promoter of yeast gene YLL057c. The source says: (§1) The inventors of the present application understood that the induction of certain yeast genes by toxic substances is caused by the activation of the promoters of the genes by the toxic substances. Thus, the inventors prepared a vector that comprised a polynucleotide sequence comprising the promoter of the yeast gene, which sequence is operably linked to a polynucleotide encoding a marker protein; and transformed yeast cells with the vector. […] The working examples hereinafter illustrate the preparation of such vectors, transformation of yeast cells by use of said vectors, and the detection of toxic substances by use of the transformed cells.
(§2) Promoter assay is a method for determining variations of the level of intracellular genes without destroying cells on the basis of the level of expressed marker genes instead of the expressed mRNA. The gene selected to detect a chemical substance is expressed in the absence of chemical substances, and thus a marker protein also occurs in the absence of chemical substances. In the method according to the present invention, the behavior of yeast genes on the addition of test materials is determined on the basis of the level of expressed marker protein so that the presence or the absence, and the kind of toxic chemical substances are predicted. Thus, it is desired that the production of marker proteins is lower in the absence of chemical substances, and the production of marker proteins is higher in the presence of chemical substances.
(§3) Type YEp shuttle vector pYES2 (pYES2, Cat no: V825-20, Invirtogen Corporation, USA), which can be replicated both in E. coli. and yeast was used as vector (R. W. Old, S. B. Primrose Principles of Gene Manipulation 5th Ed., BAIFUKAN CO., LTD, pp138-165, pp.234-263, 2000). The portion of vector PQBI 63 (Cat no.54-0082, Wako Pure Chemical Industries, Ltd.) corresponding to a marker protein GFP was used as the polynucleotide encoding GFP (SEQ ID No: 6). First, the GFP polynucleotide was inserted into the multiple cloning sites of pYES2 to give a vector. Thereafter, the GALL promoter of pYES2 was replaced with the polynucleotide comprising the promoter sequence of the intended yeast gene YLL057c (SEQ ID No: 4) to give an intended plasmid vector. Suitable restriction enzymes were selected, and the insertion of the polynucleotide comprising GFP and the promoter sequence was conducted.
(§4) Next, the yeast Saccharomyces cerevisiae W303 was transformed with the resultant plasmid vector according to the following procedures: • 1) Incubating the yeast Saccharomyces cerevisiae W303 in 200 ml of SD medium under shaking until OD 660 reaches 0.5; • 2) Suspending the collected cells in 5 ml of TE-buffer; • 3) Adding 250 μL of 2.5M lithium acetate; • 4) Dispending each 300 μl, adding 10 μl of above plasmid vector thereto, then incubating the suspensions at 30° C. for 30 minutes; • 5) Adding 700 μl of 50% PEG4000, and incubating the mixture under shaking at 30° C. for 60 minutes; • 6) Giving heat shock (42° C., 5 minutes), and then immediately cooling the mixture; • 7) Washing the mixture twice with 1M sorbitol; and • 8) Seeding it on agar plates made of minimum essential medium.
The cells of SC-YLL057C-pQBI as prepared in Example 5 were contacted to one of the following compounds. The yeast cells SC-YLL057C-pQBI were incubated at 25° C. in SD medium (Yeast nitrogen base without amino acids (Difco 0919-15)+glucose+amino acids (adenine, histidine, tryptophan)). One of toxic chemical substances as shown below was added to the cells at logarithmic growth phase, and then the cells were further incubated for two hours.

Assay [2] concerns promoter of yeast gene YOR382w.
Excerpt: as §1, §2
as §3, with “pQBI” for “PQBI”, “GAL1” for “GALL”, “YOR382w” for “YLL057c”, “3)” for “4)”
as §4
The cells of SC-YOR382W-pQBI as prepared in Example 4 were contacted to one of the following compounds. The yeast cells SC-YOR382W-pQBI were incubated at 25° C. in SD medium (Yeast nitrogen base without amino acids (Difco 0919-15)+glucose+amino acids (adenine, histidine, tryptophan)). One of toxic chemical substances as shown below was added to the cells at logarithmic growth phase, and then the cells were further incubated for two hours.

The subject of assay [3] is promoter of yeast gene YKL071w.
Excerpt: as §1, §2
as §3, with “pQBI” for “PQBI”, “GAL1” for “GALL”, “YKL071w” for “YLL057c”, “1)” for “4)”
as §4
The cells of SC-YKL071W-pQBI as prepared in Example 2 were contacted to one of the following compounds. The yeast cells SC-YKL071W-pQBI were incubated at 25° C. in SD medium (Yeast nitrogen base without amino acids (Difco 0919-15)+glucose+amino acids (adenine, histidine, tryptophan)). One of toxic chemical substances as shown below was added to the cells at logarithmic growth phase, and then the cells were further incubated for two hours.

[4] abbreviates: cells SC-YLL057C-pQBI, 2 hours incubation with the substance at the concentration printed in its row (column Concentrations), GFP fluorescence vs control without chemical.
The mark [5] stands for this setting: cells SC-YOR382W-pQBI, 2 hours incubation with the substance at the concentration printed in its row (column Concentrations), GFP fluorescence vs control without chemical.
Where [6] appears, read: SC-YKL071W-pQBI cells, 25° C., two hours, each substance at the concentration given.
[7] abbreviates: SC-YOR382W-pQBI cells, summary of Table 12.

Take `CCN(CC)C(=O)SCc1ccc(Cl)cc1` [S-4-Chlorobenzyl-N,N-diethylthiocarbamate]: the Fluorescence result in assay [1] (setting [4]) and in assay [2] (setting [5]) was “− (the number of the cells having a higher fluorescence than the control was under 1%)” throughout. Also, the Fluorescens entry in assay [3] (setting [6]) was “− (the number of the cells having a higher fluorescence than the control was under 1%)”.

With `CC(=O)O.Cc1nc(N)cc2[nH]c3ccccc3c12` [Trp-P-2 (acetate)], the Fluorescence entry in assay [1] is “− (key: −: the number of the cells having a higher fluorescence than the control was under 1%; +: between 1% and 2%; ++: 2% or more)”. Moreover, in assay [2], the Fluorescence result was “++ (key: −: the number of the cells having a higher fluorescence than the control was under 1%; +: between 1% and 2%; ++: 2% or more)”; the “expression of GFP” value is reported as “induced the expression of GFP”. The Fluorescens entry in assay [3] was “− (key: −: the number of the cells having a higher fluorescence than the control was under 1%; +: between 1% and 2%; ++: 2% or more)”.

Regarding `O=[N+]([O-])c1cc[n+]([O-])c2ccccc12` [(5), 4-nitroquinolin-N-oxide], the “expression of GFP” value in assay [2] (setting [7]) is “induced the expression of GFP”.

Turning to `C[S+](C)[O-]` [(15), dimethylsulfoxide], the “expression of GFP” value in assay [2] (setting [7]) is on record as “induced the expression of GFP”.

For the molecule `[Cl][Ni][Cl]` [nickel (II) chloride], the Fluorescence entry in assay [1] was “− (key: −: the number of the cells having a higher fluorescence than the control was under 1%; +: between 1% and 2%; ++: 2% or more)”; in assay [2], “++ (key: −: the number of the cells having a higher fluorescence than the control was under 1%; +: between 1% and 2%; ++: 2% or more)”. Further, in assay [2], the “expression of GFP” value is listed as “induced the expression of GFP”. For the same molecule, the Fluorescens result in assay [3] is “− (key: −: the number of the cells having a higher fluorescence than the control was under 1%; +: between 1% and 2%; ++: 2% or more)”.

γ-hexachlorocyclohexane [(7)]: the Fluorescence result in assay [1] (setting [4]) and in assay [2] (setting [5]) was “− (the number of the cells having a higher fluorescence than the control was under 1%)” each time. For the same molecule, in assay [3] (setting [6]), the Fluorescens entry is “− (the number of the cells having a higher fluorescence than the control was under 1%)”.

With Na2As [(1)], the “expression of GFP” value in assay [1] (SC-YLL057C-pQBI cells, summary of Table 13) was “induced the expression of GFP”. For the same molecule, the Fluorescence entry is listed as “++ (2% or more)” in assay [1] (setting [4]) and “− (the number of the cells having a higher fluorescence than the control was under 1%)” in assay [2] (setting [5]). Moreover, in assay [3] (setting [6]), the Fluorescens entry is reported as “− (the number of the cells having a higher fluorescence than the control was under 1%)”.

`O=S(=O)([O-])[O-].[Cu+2]` [copper sulfate (II)]: the Fluorescence entry in assay [1] was “− (key: −: the number of the cells having a higher fluorescence than the control was under 1%; +: between 1% and 2%; ++: 2% or more)”; in assay [2], “− (key: −: the number of the cells having a higher fluorescence than the control was under 1%; +: between 1% and 2%; ++: 2% or more)”. Besides, in assay [3], the Fluorescens result was “− (key: −: the number of the cells having a higher fluorescence than the control was under 1%; +: between 1% and 2%; ++: 2% or more)”.

For `CCCCC(CC)COC(=O)c1ccccc1C(=O)OCC(CC)CCCC` (stereo not shown), the Fluorescence result in assay [1] (setting [4]) and in assay [2] (setting [5]) was “− (the number of the cells having a higher fluorescence than the control was under 1%)” in each case. Also, the Fluorescens result in assay [3] (setting [6]) is reported as “− (the number of the cells having a higher fluorescence than the control was under 1%)”.

`CN(C)C(=S)SSC(=S)N(C)C` [(10), Tetramethylthiuram disulfide]: the “expression of GFP” value in assay [3] (SC-YKL071W-pQBI cells, summary of Table 10) is reported as “induced the expression of GFP”.

Regarding `Oc1cc(Cl)c(Cl)cc1Cl` [(6), 2,4,5-trichlorophenol], in assay [2], the “expression of GFP” value is “induced the expression of GFP”.
